Source: patent US20220125763A1, “COMPOSITIONS PROVIDING ENHANCED ANTIBACTERIAL ACTIVITY AGAINST GRAM-POSITIVE BACTERIA AND USE THEREOF” (ANIFERA LIMITED, priority 2019, published 2022)

Key:
Test in all cases: Minimum inhibitory concentration of antibiotic with or without imidazole compound
Assay type in all cases: cell-based
[1] = test system: Staphylococcus aureus Xen30; settings: S. aureus Xen30
Procedure: (§1) Exemplary embodiments of a 2-(substituted-amino)-imidazole compound in combination with an antibiotic compound were tested to evaluate the effect on minimum inhibitory concentration (MIC).
(§2) In these experiments, a frozen stock of the bacterial strain was streaked onto a sterile brain heart infusion agar plate and incubated at 37° C. for 16-20 hours. After the incubation period, three to five well-isolated bacterial colonies of the same morphologic type were taken from the brain heart infusion agar plate culture and used to inoculate, using a sterile loop, a tube containing 4 mL to 5 mL of cation adjusted Mueller Hinton (MHII) broth. The culture was allowed to grow in a shaking incubator at 220 rpm at 37° C. until the culture reached logarithmic phase, as determined by the measuring of and achieving an optical density (OD) of 0.3 to 0.5 measured at 600 nm. The bacterial concentration of the culture was then adjusted with the addition of MHII broth to achieve the equivalent of 1×10^6 colony-forming unit (CFU)/mL using the approximation that 1×10^9 CFU/mL is equal to OD600 nm=1. Cells were then treated with the designated amount of test compound (shown in Table 1) or a solvent control (dimethyl sulfoxide) for 30 minutes at ambient conditions. Cells were then transferred into 96-well round bottom plates and exposed to 2-fold serial dilutions of the denoted antibiotic.

[2] = test system: Coagulase-negative staphylococci CN74
Procedure: as §1, §2

[3] = test system: Staphylococcus aureus B12; settings: S. aureus B12
Procedure: as §1, §2

[4] = test system: Coagulase-negative staphylococci CN8
Procedure: as §1, §2

[5] = test system: Coagulase-negative staphylococci CN58
Procedure: as §1, §2

[6] = test system: Staphylococcus aureus B8; settings: S. aureus B8
Procedure: as §1, §2

Cc1onc(-c2ccccc2)c1C(=O)N[C@@H]1C(=O)N2[C@@H]1SC(C)(C)[C@@H]2C(=O)O [Oxacillin]
MIC ([1]; Staphylococcus aureus, No imidazole compound, read-out: Minimum Inhibitory Concentration of Oxacillin): 128 µg/mL

penicillin
Minimum Inhibitory Concentration of penicillin ([2]; No imidazole compound): 8 µg/mL
Minimum Inhibitory Concentration of penicillin ([3]; No imidazole compound): 16 µg/mL
Minimum Inhibitory Concentration of penicillin ([4]; No imidazole compound): 2 µg/mL
Minimum Inhibitory Concentration of penicillin ([1]; No imidazole compound): 128 µg/mL
Minimum Inhibitory Concentration of penicillin ([5]; No imidazole compound): 32 µg/mL
Minimum Inhibitory Concentration of penicillin ([6]; No imidazole compound): 64 µg/mL

CC(C)Nc1ncc(-c2cccc(NC(=O)Nc3ccc(Cl)c(Cl)c3)c2)[nH]1 [Compound 1, 1-(3,4-dichlorophenyl)-3-(3-(2-(Isopropylamino)-1H-Imidazol-5-yl)phenyl)urea]
Minimum Inhibitory Concentration of penicillin ([2]; +Compound 1 at 2 μM): 0.5 µg/mL
Minimum Inhibitory Concentration of penicillin ([3]; +Compound 1 at 2 μM): 1 µg/mL
Minimum Inhibitory Concentration of penicillin ([4]; +Compound 1 at 2 μM): 0.125 µg/mL
Minimum Inhibitory Concentration of penicillin ([1]; +Compound 1 at 4 μM): 8 µg/mL
Minimum Inhibitory Concentration of penicillin ([5]; +Compound 1 at 2 μM): 0.125 µg/mL
Minimum Inhibitory Concentration of penicillin ([6]; +Compound 1 at 2 μM): 2 µg/mL
